Data published in patent US9890192B2, “Targeted nitroxide agents” (University of Pittsburgh—of the Commonwealth System of …, priority 2008, dated 2018).

Legend:
[1] = tested on: MEF cells from Ercc1−/− mouse embryos; test: Senescence, DNA damage and apoptosis in Ercc1−/− MEF cells under ambient oxygen; format: cell-based; settings: 500 nM
Description: Graphs showing weight over time of treated, untreated and control animals are shown in FIG. 36A-B. To assess the impact of XJB-5-131 at a cellular level, a number of experiments were carried out using mouse embryonic fibroblasts (“MEF”) cells harvested from Ercc1^−/− mouse embryos.

[2] = tested on: rat ileal mucosal permeability; test: Intestinal mucosal permeability assay (FD4) after hemorrhagic shock; format: in vivo
Description: Intestinal mucosal permeability assay. Animals were allowed access to water but not food for 24 h prior to the experiment in order to decrease the volume of intestinal contents. The rats were instrumented as described above. A midline laparotomy was performed and the small intestine was exteriorized from the duodenojejunal junction to the ileocecal valve. A small incision was made on the antimesenteric aspect of the proximal small intestine and saline solution (1.5 ml) was injected. The bowel was ligated proximally and distally to the incision with 4-0 silk (Look, Reading, Pa.).
The small intestine was compressed gently in aboral direction along its length to displace intestinal contents into the colon. Starting 5 cm from the ileocecal valve, the ileum was partitioned into six contiguous water-tight segments. Each segment was 3 cm long and was bounded proximally and distally by constricting circumferential 4-0 silk sutures. Care was taken to ensure that the vascular supply to intestine was not compromised, and each segment was well-perfused.
Two randomly selected segments in each rat were injected with 0.3 ml of vehicle and served as “no treatment” controls. In order to fill the segments, a small incision was made and the solution was injected using a Teflon catheter (Abbocath 16Ga, Abbot Laboratories).
The remaining four other segments were injected with solutions containing either 4-hydroxy-2,2,6,6-tetramethylpiperidine-N-oxyl (TEMPOL) or one of the Gramicidin S-based compounds. Four different final concentrations of TEMPOL in normal saline were evaluated: 0.1, 1, 5 and 20 mM. The hemigranmicidin-based compounds were dissolved in a mixture of dimethylsulfoxide (DMSO) and normal saline (1:99 v/v) and injected at final concentrations of 0.1, 1, 10 or 100 μM. […]
Fluorescence of FD4 in the solution inside the beaker and within each gut sac was measured using a fluorescence spectrophotometer (LS-50, Perkin-Elmer, Palo Alto, Calif.) at an excitation wavelength of 492 nm and an emission wavelength of 515 nm. […]

[3] = tested on: mouse embryonic cells (MEC); test: EPR-based analysis of integration and reduction of nitroxide Gramicidin S-peptidyl conjugates in MECs; format: cell-based; settings: 10 μM, whole cells, cytosol fractions
Description: Electron paramagnetic resonance (“EPR”) spectroscopy was used to monitor the cellular delivery of compounds 5a and 5b shown in FIG. 3 in mouse embryonic cells (“MEC”).
The following conditions were used during the EPR-based analysis of the integration and reduction of nitroxide Gramicidin S-peptidyl conjugates in MECs. The MECs at a concentration of 10 million MECs per mL were incubated with 10 μM of 4-AT and compound 5a, respectively. Recovered nitroxide radicals in whole cells, mitochondria, and cytosol fractions were resuspended in phosphate buffer saline (“PBS”) in the presence and absence, respectively, of 2 μM K3Fe(CN)6.

[4] = tested on: γ-H2AX in primary MEF cells from Ercc1−/− mice; test: γ-H2AX immunostaining in Ercc1−/− MEFs under oxidative stress; format: cell-based, mouse; settings: 1 μM, 48 hours
Description: Next, the abilities of these two agents, as well as XJB-5-131 and JP4-039, each at a concentration of 1 μM, were tested for their ability to prevent oxidation-induced DNA double-strand breaks in cell cultures prepared, and oxidatively stressed, as in the preceding paragraph. Treated as well as untreated cells were, after 48 hours of treatment, immunostained for γ-H2AX, a marker of DNA double-strand breaks as well as cellular senescence.

[5] = tested on: p16 in primary MEFs from Ercc1−/− mouse embryos; test: p16 immunofluorescence in Ercc1−/− MEFs under 20% oxygen; format: cell-based; settings: 1 uM, 48 hrs
Description: To test the protective activity of JP4-039, cultures of primary MEFs were prepared from Ercc1^−/− mouse embryos and grown under 20% oxygen (ambient air), which creates oxidative stress in these cells that are hypersensitive to reactive oxygen species. The cells were then either treated with a concentration of 1 uM XJB-5-131, JP4-039, JED-E71-37 or JED-E71-58, or left untreated (media), and then after 48 hrs the level of p16, a marker of irreversible cellular senescence, was measured by immunofluorescence staining.

[6] = tested on: Ercc1−/cond; K14-Cre mice; test: Photoaging after UV-B in Ercc1−/cond; K14-Cre mice; format: in vivo, mouse; settings: 80 μg in a cream daily for five days
Description: As a measure of the effect of XJB-5-131 on photoaging, Ercc1^−/cond; K14-Cre mice, which are missing ERCC1 only in the skin, were shaved, treated with a depilatory then irradiated with UV-B light to induce a sunburn (500 J/m^2, the median erythemal dose). Subsequently, the mice were treated with XJB-5-131 (80 μg) emulsified in a cream daily for five days.

Question: Which results are given for CC(C)C[C@@H](/C=C/[C@H](Cc1ccccc1)C(=O)N1CCC[C@H]1C(=O)N[C@H](C(=O)N[C@@H](CCCNC(=O)OCc1ccccc1)C(=O)NC1CC(C)(C)N([O])C(C)(C)C1)C(C)C)NC(=O)OC(C)(C)C [XJB-5-131]?
Answer: SA-β galactosidase staining [1]: notably less; apoptosis [1]: did not reduce the amount of apoptosis; γH2AX foci [1]: reduce the number of γH2AX foci; potency relative to TEMPOL ([2]; from lowest effective concentrations): ~1000 fold; hemorrhagic shock-induced mucosal hyperpermeability, of the control value ([2]; intraluminal): approximately 60%; lowest effective concentration ([2]; intraluminal): 1 µM; EPR signals of nitroxide radicals; integration into cells and mitochondria [3]: concentrated in the mitochondria; γ-H2AX (oxidation-induced DNA double-strand breaks) [4]: less effective; level of p16 [5]: less effective; appearance of skin after UV-B [6]: much more smooth and healthy
